Assay results as given in ChEMBL document CHEMBL5634115, “Exploring novel anticancer pyrazole benzenesulfonamides featuring tail approach strategy as carbonic anhydrase inhibitors” (Eur J Med Chem, 2023).
pIC50: −log10 of the molar value.

Assays:
[1] = tested on: CCRF-CEM; experiment: cells; type: functional; settings: Homo sapiens, time 48 hrs
Description: Growth inhibition of human CCRF-CEM cells measured after 48 hrs by sulforhodamine B assay

[2] = tested on: HL-60(TB); experiment: cells; type: functional; settings: Homo sapiens, time 48 hrs
Description: Growth inhibition of human HL-60(TB) cells measured after 48 hrs by sulforhodamine B assay

[3] = tested on: RPMI-8226; experiment: cells; type: functional; settings: Homo sapiens, time 48 hrs
Description: Growth inhibition of human RPMI-8226 cells measured after 48 hrs by sulforhodamine B assay

[4] = tested on: A549; experiment: cells; type: functional; settings: Homo sapiens, time 48 hrs
Description: Growth inhibition of human A549 cells measured after 48 hrs by sulforhodamine B assay

[5] = tested on: EKVX; experiment: cells; type: functional; settings: Homo sapiens, time 48 hrs
Description: Growth inhibition of human EKVX cells measured after 48 hrs by sulforhodamine B assay

[6] = tested on: HOP-92; experiment: cells; type: functional; settings: Homo sapiens, time 48 hrs
Description: Growth inhibition of human HOP-92 cells measured after 48 hrs by sulforhodamine B assay

[7] = tested on: NCI-H522; experiment: cells; type: functional; settings: Homo sapiens, time 48 hrs
Description: Growth inhibition of human NCI-H522 cells measured after 48 hrs by sulforhodamine B assay

[8] = tested on: COLO 205; experiment: cells; type: functional; settings: Homo sapiens, time 48 hrs
Description: Growth inhibition of human COLO 205 cells measured after 48 hrs by sulforhodamine B assay

[9] = tested on: HCC 2998; experiment: cells; type: functional; settings: Homo sapiens, time 48 hrs
Description: Growth inhibition of human HCC 2998 cells measured after 48 hrs by sulforhodamine B assay

[10] = tested on: HT-29; experiment: cells; type: functional; settings: Homo sapiens, time 48 hrs
Description: Growth inhibition of human HT-29 cells measured after 48 hrs by sulforhodamine B assay

[11] = tested on: SW-620; experiment: cells; type: functional; settings: Homo sapiens, time 48 hrs
Description: Growth inhibition of human SW620 cells measured after 48 hrs by sulforhodamine B assay

[12] = tested on: SF-268; experiment: cells; type: functional; settings: Homo sapiens, time 48 hrs
Description: Growth inhibition of human SF-268 cells measured after 48 hrs by sulforhodamine B assay

[13] = tested on: SF-295; experiment: cells; type: functional; settings: Homo sapiens, time 48 hrs
Description: Growth inhibition of human SF-295 cells measured after 48 hrs by sulforhodamine B assay

[14] = tested on: SNB-19; experiment: cells; type: functional; settings: Homo sapiens, time 48 hrs
Description: Growth inhibition of human SNB-19 cells measured after 48 hrs by sulforhodamine B assay

[15] = tested on: MDA-MB-435; experiment: cells; type: functional; settings: Homo sapiens, time 48 hrs
Description: Growth inhibition of human MDA-MB-435 cells measured after 48 hrs by sulforhodamine B assay

[16] = tested on: SK-MEL-5; experiment: cells; type: functional; settings: Homo sapiens, time 48 hrs
Description: Growth inhibition of human SK-MEL-5 cells measured after 48 hrs by sulforhodamine B assay

[17] = tested on: OVCAR-8; experiment: cells; type: functional; settings: Homo sapiens, time 48 hrs
Description: Growth inhibition of human OVCAR-8 cells measured after 48 hrs by sulforhodamine B assay

[18] = tested on: NCI/ADR-RES; experiment: cells; type: functional; settings: Homo sapiens, time 48 hrs
Description: Growth inhibition of human NCI/ADR-RES cells measured after 48 hrs by sulforhodamine B assay

[19] = tested on: RXF 393; experiment: cells; type: functional; settings: Homo sapiens, time 48 hrs
Description: Growth inhibition of human RXF 393 cells measured after 48 hrs by sulforhodamine B assay

[20] = tested on: SN12C; experiment: cells; type: functional; settings: Homo sapiens, time 48 hrs
Description: Growth inhibition of human SN12C cells measured after 48 hrs by sulforhodamine B assay

[21] = tested on: UO-31; experiment: cells; type: functional; settings: Homo sapiens, time 48 hrs
Description: Growth inhibition of human UO-31 cells measured after 48 hrs by sulforhodamine B assay

[22] = tested on: PC-3; experiment: cells; type: functional; settings: Homo sapiens, time 48 hrs
Description: Growth inhibition of human PC-3 cells measured after 48 hrs by sulforhodamine B assay

[23] = tested on: MDA-MB-231; experiment: cells; type: functional; settings: Homo sapiens, time 48 hrs
Description: Growth inhibition of human MDA-MB-231 cells measured after 48 hrs by sulforhodamine B assay

[24] = tested on: BT-549; experiment: cells; type: functional; settings: Homo sapiens, time 48 hrs
Description: Growth inhibition of human BT-549 cells measured after 48 hrs by sulforhodamine B assay

[25] = tested on: MOLT-4; experiment: cells; type: functional; settings: Homo sapiens, time 48 hrs
Description: Cytostatic activity against human MOLT-4 cells assessed as total growth inhibition measured after 48 hrs by sulforhodamine B assay

[26] = tested on: SR; experiment: cells; type: functional; settings: Homo sapiens, time 48 hrs
Description: Cytostatic activity against human SR cells assessed as total growth inhibition measured after 48 hrs by sulforhodamine B assay

[27] = tested on: NCI-H322M; experiment: cells; type: functional; settings: Homo sapiens, time 48 hrs
Description: Cytostatic activity against human NCI-H322M cells assessed as total growth inhibition measured after 48 hrs by sulforhodamine B assay

[28] = tested on: HCC 2998; experiment: cells; type: functional; settings: Homo sapiens, time 48 hrs; remark: listed apart in the source
Description: Cytostatic activity against human HCC 2998 cells assessed as total growth inhibition measured after 48 hrs by sulforhodamine B assay

[29] = tested on: HCT-116; experiment: cells; type: functional; settings: Homo sapiens, time 48 hrs
Description: Cytostatic activity against human HCT-116 cells assessed as total growth inhibition measured after 48 hrs by sulforhodamine B assay

[30] = tested on: HT-29; experiment: cells; type: functional; settings: Homo sapiens, time 48 hrs; remark: listed apart in the source
Description: Cytostatic activity against human HT-29 cells assessed as total growth inhibition measured after 48 hrs by sulforhodamine B assay

[31] = tested on: KM12; experiment: cells; type: functional; settings: Homo sapiens, time 48 hrs
Description: Cytostatic activity against human KM12 cells assessed as total growth inhibition measured after 48 hrs by sulforhodamine B assay

[32] = tested on: SF-268; experiment: cells; type: functional; settings: Homo sapiens, time 48 hrs; remark: listed apart in the source
Description: Cytostatic activity against human SF-268 cells assessed as total growth inhibition measured after 48 hrs by sulforhodamine B assay

[33] = tested on: SK-MEL-5; experiment: cells; type: functional; settings: Homo sapiens, time 48 hrs; remark: listed apart in the source
Description: Cytostatic activity against human SK-MEL-5 cells assessed as total growth inhibition measured after 48 hrs by sulforhodamine B assay

[34] = tested on: OVCAR-3; experiment: cells; type: functional; settings: Homo sapiens, time 48 hrs
Description: Cytostatic activity against human OVCAR-3 cells assessed as total growth inhibition measured after 48 hrs by sulforhodamine B assay

[35] = tested on: OVCAR-5; experiment: cells; type: functional; settings: Homo sapiens, time 48 hrs
Description: Cytostatic activity against human OVCAR-5 cells assessed as total growth inhibition measured after 48 hrs by sulforhodamine B assay

[36] = tested on: SK-OV-3; experiment: cells; type: functional; settings: Homo sapiens, time 48 hrs
Description: Cytostatic activity against human SK-OV-3 cells assessed as total growth inhibition measured after 48 hrs by sulforhodamine B assay

[37] = tested on: 786-0; experiment: cells; type: functional; settings: Homo sapiens, time 48 hrs
Description: Cytostatic activity against human 786-0 cells assessed as total growth inhibition measured after 48 hrs by sulforhodamine B assay

[38] = tested on: ACHN; experiment: cells; type: functional; settings: Homo sapiens, time 48 hrs
Description: Cytostatic activity against human ACHN cells assessed as total growth inhibition measured after 48 hrs by sulforhodamine B assay

[39] = tested on: CAKI-1; experiment: cells; type: functional; settings: Homo sapiens, time 48 hrs
Description: Cytostatic activity against human CAKI-1 cells assessed as total growth inhibition measured after 48 hrs by sulforhodamine B assay

[40] = tested on: UO-31; experiment: cells; type: functional; settings: Homo sapiens, time 48 hrs; remark: listed apart in the source
Description: Cytostatic activity against human UO-31 cells assessed as total growth inhibition measured after 48 hrs by sulforhodamine B assay

[41] = tested on: DU-145; experiment: cells; type: functional; settings: Homo sapiens, time 48 hrs
Description: Cytostatic activity against human DU-145 cells assessed as total growth inhibition measured after 48 hrs by sulforhodamine B assay

[42] = tested on: Hs-578T; experiment: cells; type: functional; settings: Homo sapiens, time 48 hrs
Description: Cytostatic activity against human Hs-578T cells assessed as total growth inhibition measured after 48 hrs by sulforhodamine B assay

[43] = tested on: MDA-MB-468; experiment: cells; type: functional; settings: Homo sapiens, time 48 hrs
Description: Cytostatic activity against human MDA-MB-468 cells assessed as total growth inhibition measured after 48 hrs by sulforhodamine B assay

[44] = target: Carbonic anhydrase 12 (Homo sapiens, UniProt O43570)
Description: Inhibition of human carbonic anhydrase 12 preincubated for 15 mins followed by substrate addition and measured after 30 mins by spectrophotometric method

[45] = tested on: HL-60(TB); experiment: cells; settings: Homo sapiens, HL-60, 48 h, read-out: LC50
Description: Cytotoxicity activity against human HL-60(TB) cells assessed as reduction in cell growth measured after 48 hrs by sulforhodamine B assay

[46] = tested on: SR; experiment: cells; settings: Homo sapiens, 48 h, read-out: LC50
Description: Cytotoxicity activity against human SR cells assessed as reduction in cell growth measured after 48 hrs by sulforhodamine B assay

[47] = tested on: A549; experiment: cells; settings: Homo sapiens, A549, 48 h, read-out: LC50
Description: Cytotoxicity activity against human A549 cells assessed as reduction in cell growth measured after 48 hrs by sulforhodamine B assay

[48] = tested on: HOP-62; experiment: cells; settings: Homo sapiens, HOP-62, 48 h, read-out: LC50
Description: Cytotoxicity activity against human HOP-62 cells assessed as reduction in cell growth measured after 48 hrs by sulforhodamine B assay

[49] = tested on: HOP-92; experiment: cells; settings: Homo sapiens, HOP-92, 48 h, read-out: LC50
Description: Cytotoxicity activity against human HOP-92 cells assessed as reduction in cell growth measured after 48 hrs by sulforhodamine B assay

[50] = tested on: NCI-H322M; experiment: cells; settings: Homo sapiens, 48 h, read-out: LC50
Description: Cytotoxicity activity against human NCI-H322M cells assessed as reduction in cell growth measured after 48 hrs by sulforhodamine B assay

[51] = tested on: NCI-H460; experiment: cells; settings: Homo sapiens, NCI-H460, 48 h, read-out: LC50
Description: Cytotoxicity activity against human NCI-H460 cells assessed as reduction in cell growth measured after 48 hrs by sulforhodamine B assay

[52] = tested on: HT-29; experiment: cells; settings: Homo sapiens, HT-29, 48 h, read-out: LC50
Description: Cytotoxicity activity against human HT-29 cells assessed as reduction in cell growth measured after 48 hrs by sulforhodamine B assay

[53] = tested on: U-251; experiment: cells; settings: Homo sapiens, U-251, 48 h, read-out: LC50
Description: Cytotoxicity activity against human U-251 cells assessed as reduction in cell growth measured after 48 hrs by sulforhodamine B assay

[54] = tested on: SK-MEL-28; experiment: cells; settings: Homo sapiens, SK-MEL-28, 48 h, read-out: LC50
Description: Cytotoxicity activity against human SK-MEL-28 cells assessed as reduction in cell growth measured after 48 hrs by sulforhodamine B assay

[55] = tested on: OVCAR-3; experiment: cells; settings: Homo sapiens, OVCAR-3, 48 h, read-out: LC50
Description: Cytotoxicity activity against human OVCAR-3 cells assessed as reduction in cell growth measured after 48 hrs by sulforhodamine B assay

[56] = tested on: OVCAR-5; experiment: cells; settings: Homo sapiens, OVCAR-5, 48 h, read-out: LC50
Description: Cytotoxicity activity against human OVCAR-5 cells assessed as reduction in cell growth measured after 48 hrs by sulforhodamine B assay

[57] = tested on: 786-0; experiment: cells; settings: Homo sapiens, 786-0, 48 h, read-out: LC50
Description: Cytotoxicity activity against human 786-0 cells assessed as reduction in cell growth measured after 48 hrs by sulforhodamine B assay

[58] = tested on: A498; experiment: cells; settings: Homo sapiens, A498, 48 h, read-out: LC50
Description: Cytotoxicity activity against human A498 cells assessed as reduction in cell growth measured after 48 hrs by sulforhodamine B assay

[59] = tested on: ACHN; experiment: cells; settings: Homo sapiens, 48 h, read-out: LC50
Description: Cytotoxicity activity against human ACHN cells assessed as reduction in cell growth measured after 48 hrs by sulforhodamine B assay

[60] = tested on: TK-10; experiment: cells; settings: Homo sapiens, TK-10, 48 h, read-out: LC50
Description: Cytotoxicity activity against human TK-10 cells assessed as reduction in cell growth measured after 48 hrs by sulforhodamine B assay

[61] = tested on: UO-31; experiment: cells; settings: Homo sapiens, UO-31, 48 h, read-out: LC50
Description: Cytotoxicity activity against human UO-31 cells assessed as reduction in cell growth measured after 48 hrs by sulforhodamine B assay

[62] = tested on: BT-549; experiment: cells; settings: Homo sapiens, BT-549, 48 h, read-out: LC50
Description: Cytotoxicity activity against human BT-549 cells assessed as reduction in cell growth measured after 48 hrs by sulforhodamine B assay

Chain of Carbonic anhydrase 12 (O43570 whole entry): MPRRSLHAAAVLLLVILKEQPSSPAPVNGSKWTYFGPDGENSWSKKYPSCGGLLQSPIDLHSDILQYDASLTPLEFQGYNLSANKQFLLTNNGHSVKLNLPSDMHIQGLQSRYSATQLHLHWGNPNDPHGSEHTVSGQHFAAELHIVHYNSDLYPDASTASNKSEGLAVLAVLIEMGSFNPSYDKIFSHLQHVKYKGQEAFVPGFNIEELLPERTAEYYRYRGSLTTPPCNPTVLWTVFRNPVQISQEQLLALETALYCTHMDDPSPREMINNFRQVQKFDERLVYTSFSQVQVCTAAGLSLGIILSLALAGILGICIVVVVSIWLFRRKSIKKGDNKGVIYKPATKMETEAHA

`CCOC(=O)c1ccc(N/N=C/c2cn(-c3ccc(S(N)(=O)=O)cc3)nc2-c2ccc(C)cc2)cc1` gave a GI50 [1] of 3.82 µM, a GI50 [2] of 3.05 µM and a GI50 [3] of 3.24 µM. It also gave a GI50 [4] of 4.07 µM, a GI50 [5] of 3.17 µM and a GI50 [6] of 2.79 µM. For the same compound, the GI50 [7] was 2.07 µM, the GI50 [8] was 11.2 µM and the GI50 [9] was 2.05 µM. For the same compound, the GI50 [10] was 2.97 µM, the GI50 [11] was 3.66 µM and the GI50 [12] was 4.07 µM. It also gave a GI50 [13] of 6.92 µM, a GI50 [14] of 4.1 µM and a GI50 [15] of 2.87 µM. For the same compound, the GI50 [16] was 2.99 µM, the GI50 [17] was 5.68 µM and the GI50 [18] was 2.94 µM. For the same compound, the GI50 [19] was 1.97 µM, the GI50 [20] was 16 µM and the GI50 [21] was 2.71 µM. For the same compound, the GI50 [22] was 3.13 µM, the GI50 [23] was 2.56 µM and the GI50 [24] was 10.8 µM. For the same compound, the TGI [25] was 11.5 µM, the TGI [26] was 2.65 µM and the TGI [27] was 5.38 µM. The TGI [28] was 4.23 µM, the TGI [29] was 10.6 µM and the TGI [30] was 8.38 µM. It also gave a TGI [31] of 4.59 µM, a TGI [32] of 34.2 µM and a TGI [33] of 10.2 µM. For the same compound, the TGI [34] was 7.27 µM, the TGI [35] was 20 µM and the TGI [36] was greater than 100 µM. The TGI [37] was 5.74 µM, the TGI [38] was 24.3 µM and the TGI [39] was 11.7 µM. For the same compound, the TGI [40] was 14.8 µM, the TGI [41] was 24.4 µM and the TGI [42] was 27.2 µM. For the same compound, the TGI [43] was 16 µM, the pIC50 [44] was 6.81 and the CC50 [45] was greater than 100 µM. The CC50 [46] was greater than 100 µM, the CC50 [47] was greater than 100 µM and the CC50 [48] was greater than 100 µM. It also gave a CC50 [49] greater than 100 µM, a CC50 [50] greater than 100 µM and a CC50 [51] greater than 100 µM. It also gave a CC50 [52] greater than 100 µM, a CC50 [53] greater than 100 µM and a CC50 [54] of 65.8 µM. For the same compound, the CC50 [55] was 62.6 µM, the CC50 [56] was 63.6 µM and the CC50 [57] was 68 µM. The CC50 [58] was greater than 100 µM, the CC50 [59] was greater than 100 µM and the CC50 [60] was greater than 100 µM. It also gave a CC50 [61] greater than 100 µM and a CC50 [62] greater than 100 µM.
